Results as given in paper PMC9552247 (Addiction biology, 2022).

Molecular target: human DAT (CHO-DAT) (Homo sapiens, UniProt Q01959)
Details: labelled compound, 60 nM, pH 7.4, 37°C

human DAT (CHO-DAT), sequence (Q01959 whole entry): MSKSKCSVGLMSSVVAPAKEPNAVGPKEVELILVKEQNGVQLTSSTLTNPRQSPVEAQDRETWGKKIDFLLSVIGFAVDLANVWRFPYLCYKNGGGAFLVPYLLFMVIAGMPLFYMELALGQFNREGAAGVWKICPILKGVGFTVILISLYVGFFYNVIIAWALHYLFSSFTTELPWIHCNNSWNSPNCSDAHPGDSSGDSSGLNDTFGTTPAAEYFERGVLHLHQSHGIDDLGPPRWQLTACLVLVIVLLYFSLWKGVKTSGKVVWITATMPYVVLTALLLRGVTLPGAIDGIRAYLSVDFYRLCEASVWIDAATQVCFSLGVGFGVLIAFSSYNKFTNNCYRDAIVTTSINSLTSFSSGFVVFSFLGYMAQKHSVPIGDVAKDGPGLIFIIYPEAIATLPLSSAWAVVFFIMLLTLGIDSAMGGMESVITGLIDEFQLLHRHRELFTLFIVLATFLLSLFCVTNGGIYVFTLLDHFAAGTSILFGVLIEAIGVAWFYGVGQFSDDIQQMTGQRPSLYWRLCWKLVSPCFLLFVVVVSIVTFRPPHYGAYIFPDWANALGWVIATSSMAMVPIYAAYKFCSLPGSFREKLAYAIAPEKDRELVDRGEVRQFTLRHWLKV

## NCCc1ccc(O)c(O)c1 [dopamine]
  [3H]-dopamine uptake in CHO-DAT cells: cells expressing the DA transporter (CHO-DAT) using tritiated dopamine
